{"source": "PubChem BioAssay (NCI)", "assay_in_all_cases": "growth of human tumour cells (NCI), 384-well format", "key": {"[1]": {"tested_on": "A549 NSCLC"}, "[2]": {"tested_on": "SF-268 CNS"}, "[3]": {"tested_on": "786-0 renal"}, "[4]": {"tested_on": "MDA-MB-435 melanoma"}, "[5]": {"tested_on": "SF-539 CNS"}, "[6]": {"tested_on": "ACHN renal"}, "[7]": {"tested_on": "PC-3 prostate"}, "[8]": {"tested_on": "HT29 colon"}, "[9]": {"tested_on": "LOX IMVI melanoma"}, "[10]": {"tested_on": "CAKI-1 renal"}, "[11]": {"tested_on": "SW-620 colon"}, "[12]": {"tested_on": "CCRF-CEM leukemia"}, "[13]": {"tested_on": "NCI-H322M lung"}}, "note": "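GI50 = concentration required for 50% inhibition of growth. At the TGI there is no net growth.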", "data": [{"smiles": "NC(=O)[C@@H](CC1CC1)[C@@H](CCC(F)(F)F)C(=O)N[C@H]1N=C(c2ccccc2)c2cccc(F)c2NC1=O", "values": [{"measurement": "GI50", "setting": "[1]", "value": 15.7, "unit": "µM"}, {"measurement": "TGI", "setting": "[1]", "value": 49.4, "unit": "µM"}, {"measurement": "GI50", "setting": "[2]", "value": 7.01, "unit": "µM"}, {"measurement": "TGI", "setting": "[2]", "value": 24.3, "unit": "µM"}, {"measurement": "GI50", "setting": "[3]", "value": 20.3, "unit": "µM"}, {"measurement": "TGI", "setting": "[3]", "value": "> 67.6", "unit": "µM"}, {"measurement": "GI50", "setting": "[4]", "value": 19.2, "unit": "µM"}, {"measurement": "TGI", "setting": "[4]", "value": 43.7, "unit": "µM"}, {"measurement": "GI50", "setting": "[5]", "value": 15.4, "unit": "µM"}, {"measurement": "TGI", "setting": "[5]", "value": 29, "unit": "µM"}, {"measurement": "GI50", "setting": "[6]", "value": 20.8, "unit": "µM"}, {"measurement": "TGI", "setting": "[6]", "value": "> 64.5", "unit": "µM"}, {"measurement": "GI50", "setting": "[7]", "value": 17.6, "unit": "µM"}, {"measurement": "TGI", "setting": "[7]", "value": 34.2, "unit": "µM"}, {"measurement": "GI50", "setting": "[8]", "value": 32.9, "unit": "µM"}, {"measurement": "TGI", "setting": "[8]", "value": 98, "unit": "µM"}, {"measurement": "GI50", "setting": "[9]", "value": 11.7, "unit": "µM"}, {"measurement": "TGI", "setting": "[9]", "value": 38.4, "unit": "µM"}, {"measurement": "GI50", "setting": "[10]", "value": 15, "unit": "µM"}, {"measurement": "TGI", "setting": "[10]", "value": 36.8, "unit": "µM"}, {"measurement": "GI50", "setting": "[11]", "value": 17.7, "unit": "µM"}, {"measurement": "TGI", "setting": "[11]", "value": 35.1, "unit": "µM"}, {"measurement": "GI50", "setting": "[12]", "value": 9.79, "unit": "µM"}, {"measurement": "TGI", "setting": "[12]", "value": "> 64.3", "unit": "µM"}, {"measurement": "GI50", "setting": "[13]", "value": 12.4, "unit": "µM"}, {"measurement": "TGI", "setting": "[13]", "value": 40.6, "unit": "µM"}]}]}
